According to patent US20240301409A1, “Chemically Modified Small Activating RNA” (RACTIGEN THERAPEUTICS, priority 2021, published 2024):
Oligonucleotides are written 5' to 3', each unit as a sugar letter and its base; * is a phosphorothioate linkage, no mark a phosphodiester; rarer units and linkages stand in square brackets, end groups in braces. Plain capitals give the bases only. m = 2'-O-methyl; r = 2'-OH (RNA); f = 2'-fluoro

Assays:
p21 gene [1] = assay: p21 mRNA expression by RT-qPCR in T24 cells; format: cell-based, human; settings: 10 nM
Method: (§1) Ku-7-LG and T24 cells were transfected with the indicated saRNA at a final concentration of 10 nM for 3 days. After transfection, the RNA was extracted with the Qiagen RNeasy kit. After reverse transcription, the ABI 7500 fast real-time PCR system was used for qPCR amplification. The GAPDH gene was amplified as an internal reference. […] Dashed line indicates duplex Rag1-40 with no chemical modification in comparison, and the values above the line indicate stronger activity. The control was blank transfection without oligonucleotide. dsCon2 is transfected with a double-stranded scramble RNA. The value of the ordinate represents the mean±SD of 2 repeated treatments.
(§2) The control and dsCon2 were blank transfection and scramble dsRNA transfection, respectively. The values in the ordinate represent the mean±SD of 2 repeated treatments.
(§3) Human bladder cancer cells Ku-7-LG (ATCC), J82 (ATCC) and T24 (ATCC) were cultured in McCoy medium (Gibco) comprising 10% calf serum (Sigma-Aldrich) and 1% penicillin/Streptomycin (Gibco). Cells were cultured at 37° C. under 5% CO2. Ku-7-LG, J82 and T24 cells were plated into 12-well plates at 10×10^4 cells per well, transfected with the small RNA at a concentration of 10 nM (unless otherwise specified) for three days, using RNAiMax (Invitrogen, Carlsbad, CA) according to the manufacturer's instructions. Two replicate wells were set for each treatment.
(§4) After transfection, the medium was discarded and to each well 500 μl cell lysate was added and incubated at room temperature for 5 minutes. RNA was extracted with the Qiagen RNeasy kit, and after reverse transcription, qPCR analysis was performed on the ABI 7500 Fast Real-time PCR system (Applied Biosystems). Each sample was amplified in 3 replicate wells.
(§5) The PCR reaction conditions are: 95° C. for 30 seconds, 95° C. for 5 seconds, 60° C. for 30 seconds, and 40 cycles of amplification. The GAPDH gene was amplified as an internal reference at the same time. p21 was amplified with the p21F1/R1 primer pair, and the specific sequences of the amplification primers are shown in Table 1.
(§6) In order to calculate the expression value (Erel) of p21 (target gene) of a saRNA transfection sample relative to the control treatment, Formula 1 is used to input the Ct values of the target gene and the internal reference gene for calculation.
(§7) wherein, CtTm is the Ct value of the target gene from the control treatment sample; CtTs is the Ct value of the target gene from the saRNA treated sample; CtRm is the Ct value of the internal reference gene from the control treatment sample; and CtRs is the Ct value of the internal reference gene from the saRNA treated sample.
(§8) The main purpose of introducing chemical modifications to regulatory oligonucleotides of a gene is to improve their pharmaceutical properties, including enhancing in vivo stability and mitigating off-target effects (e.g., sequence-dependent targeting of unrelated genes, sequence-dependent or independent immune stimulation), while maintaining their gene regulatory capacity (gene knockdown or activation). To assess the effect of chemical modification on the RNAa activity of saRNA on the p21 gene, 10 nM unmodified (Rag1-40) and modified (Rag1-40-1 to Rag1-40-34) duplexes were transfected into Ku-7-LG and T24 cells, respectively. After 72 hours, the mRNA expression level of p21 was assessed by RT-qPCR. All duplexes induced p21 mRNA expression in all […] at least double that of the control.
(§9) In order to further evaluate the expression level of p21 mRNA after the different durations of treatment by the chemically modified saRNA duplexes, two saRNAs (RAG1-40-31 and RAG1-40-53) were randomly selected from the above chemically modified saRNA duplexes for detection. RAG1-40-31 and RAG1-40-53 were transfected into Ku-7-LG and T24 cells at a final concentration of 10 nM, for 1, 2, 3, 4, 7 and 9 days, respectively. Each treatment was set up in duplicate. […]

p21 gene [2] = assay: p21 mRNA expression by RT-qPCR in Ku-7-LG cells; format: cell-based, human; settings: 10 nM
Method: as §1, §2, §3, §4, §5, §6, §7, §8, §9

Ku-7-LG cells = assay: Cell cycle detection by flow cytometry in Ku-7-LG cells; format: cell-based, human; settings: 48 hours
Method: RAG1-40-31 and RAG1-40-53 were transfected into Ku-7-LG cells at the final concentrations of 0.1, 1, 10 and 50 nM, and the transfection duration was 48 hours. Two replicate wells were used for each treatment. After transfection, the cell cycle was analyzed by flow cytometry, and the collected data were analyzed by MotFit software.
After transfection, the supernatant was discarded to collect cells. To each well 500 μL PBS was added for one wash and then discarded. To each well 100 μL trypsin was further added. 900 μL medium was added to stop digestion before transferring to a 1.5 mL centrifuge tube. All the cells were collected through centrifugation (400 rcf, 5 min) and counted (2×10^5 cells/200 μL PBS). Cold 70% absolute ethanol was added before incubation overnight at 4° C. After washing twice with PBS, 200 μL Krishan buffer was added before incubation at 4° C. for 1 hour. After washing twice with PBS, the supernatant was discarded and 200 μL PBS was added for cell re-suspension, then the cells were transferred to a 96-well plate and analyzed by flow cytometer. The collected data were analyzed with MotFit software.
In order to study the mechanism of cellular proliferation suppression, change in cell cycle was analyzed using flow cytometry in this example. Randomly selected saRNAs RAG1-40-31 and RAG1-40-53 were transfected into Ku-7-LG cells at final concentrations of 0.1, 1, 10 and 50 nM, respectively, for 48 hours. Each treatment was set in duplicate. Cell cycle was detected and analyzed as described in the general protocol above.

[3] = test system: Rag1-40 target sequence in the 3′ UTR of firefly luciferase, COS-1 cells; assay: Analysis of off-target effects (pOff-Target dual luciferase reporter in COS-1 cells); settings: lysed 48 hours after transfection, luciferase activity
Method: A 26 bp fragment comprising the target site of Rag1-40 was cloned in the antisense orientation into the 3′ UTR region of the firefly luciferase gene in a pmirGLO dual luciferase vector. Vector plasmids were co-transfected with the indicated saRNAs into COS-1 cells. Cells were lysed 48 hours after transfection, and the resulting lysates were assessed for luciferase activity. Data represent mean±SD of at least two independent experiments. Dashed line represents comparisons to blank control (top dashed line) and Rag1-40 (bottom dashed line). Values close to the top dashed line indicate no off-target effect.
A 26 bp fragment comprising the Rag1-40 target sequence was cloned in the antisense orientation into a multiple cloning site (MCS) of the 3′ untranslated region of firefly luciferase of the pmirGLO dual luciferase vector (Promega, Fitchburg, WI), to obtain pOff-Target plasmid. Following E. coli transformation and overnight incubation, plasmids for each construct were prepared by standard method. Each plasmid was transfected into COS-1 monkey kidney epithelial cells using Lipofectamine 3000 (Invitrogen, Carlsbad, CA). Subsequently, saRNA was transfected using RNAiMAX. After 24 hours of incubation, COS-1 cells were lysed with 1× lysis buffer, and luciferase activity was measured using dual luciferase reporter gene assay system (Promega, WI, USA) following manufacturer's instructions.
To assess the off-target effects of unmodified and modified saRNAs, a sequence complementary to the sense oligonucleotide strand of Rag1-40 was cloned into the 3′UTR region of the luciferase gene in a pmirGLO dual luciferase vector. The vector plasmid was co-transfected with the saRNA into COS-1 cells. Cells were lysed 48 hours after transfection and the resulting lysates were assessed for luciferase activity.

RNase A = biological target: T1, RNase A (Bos taurus, UniProt P61823); assay: saRNA stability analysis in the presence of RNase A (agarose gel); settings: incubation 0 to 96 hours
T1 sequence (P61823 27-150): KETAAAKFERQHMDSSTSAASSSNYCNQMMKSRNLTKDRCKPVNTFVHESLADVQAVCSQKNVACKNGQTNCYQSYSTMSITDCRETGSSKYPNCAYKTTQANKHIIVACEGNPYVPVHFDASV
Method: The duplexes obtained at each time point above were each added to 1 μL of 10× loading buffer, and then frozen in liquid nitrogen. After incubation, all samples were detected for the double-stranded RNA by 4% agarose gel electrophoresis, and the content of each duplex was analyzed by Image J software.
The duplexes obtained at each time point indicated above were each added to 1 μL of 10× loading buffer, and then frozen in liquid nitrogen. After incubation, all samples were detected for the double-stranded RNA by 4% agarose gel electrophoresis, and the content of each duplex was analyzed by Image J software.
saRNA (1.5 μL, 10 μM) was incubated at a final concentration of 0.02 mg/mL in PBS in the presence of RNase A (Amresco, OH, USA) at 37° C. for different durations. At the end of the incubation, the mixture was snap frozen in liquid nitrogen to stop nuclease activity. Samples were analyzed on a 4% agarose gel and examined for duplex degradation.
All chemically modified duplexes (Rag1-40-1 to Rag1-40-32) were incubated with 0.02 μg/L of RNase A for different durations (0 to 96 hours). At the end of the incubation, the size and amount of duplexes were detected by agarose gel electrophoresis.

Substance: RAG1-40-53: saRNA duplex: sense mCmCAACfUCAfUfUCfUCCAAG*mU*mC (SEQ ID NO 24); antisense fUAfCfUfUGGAGAAfUGAGfUfUGG*fC*fA (SEQ ID NO 25) (sense CCAACUCAUUCUCCAAGUC; antisense UACUUGGAGAAUGAGUUGGCA; 2'-F, 2'-OMe, phosphorothioate modifications; modified_base (1)..(19) (1,2,18,19)=2′-O-methyl(2′-OMe); modified_base (6)..(12) (6,9,10,12)=2′-fluoro; modified_base (17)..(19) (17,18,19)=phosphorothioate (PS) backbone modification; modified_base (1)..(21) (1,3,4,5,12,16,17,20,21)=2′-fluoro; modified_base (20)..(21) (20,21)=phosphorothioate (PS) backbone modification)
- increase of expression level of p21 mRNA compared with the control group (p21 gene [1]; 1 day): 2.2 fold
- increase of expression level of p21 mRNA compared with the control group (p21 gene [1]; 2 days): 3.5 fold
- increase of expression level of p21 mRNA compared with the control group (p21 gene [1]; 3 days): 7.8 fold
- increase of expression level of p21 mRNA compared with the control group (p21 gene [1]; 4 days): 4.5 fold
- increase of expression level of p21 mRNA compared with the control group (p21 gene [1]; 7 days): 1.2 fold
- increase of expression level of p21 mRNA compared with the control group (p21 gene [1]; 9 days): 1.1 fold
- increase of expression level of p21 mRNA compared with the control group (p21 gene [2]; 1 day): 1.4 fold
- increase of expression level of p21 mRNA compared with the control group (p21 gene [2]; 2 days): 13.0 fold
- increase of expression level of p21 mRNA compared with the control group (p21 gene [2]; 3 days): 9.1 fold
- increase of expression level of p21 mRNA compared with the control group (p21 gene [2]; 4 days): 4.5 fold
- increase of expression level of p21 mRNA compared with the control group (p21 gene [2]; 7 days): 3.2 fold
- increase of expression level of p21 mRNA compared with the control group (p21 gene [2]; 9 days): 4.1 fold
- percentage of cells in DNA anaphase/mitosis (G2/M) (Ku-7-LG cells; 0.1 nM): 7%
- percentage of cells in DNA replication phase (S phase) (Ku-7-LG cells; 0.1 nM): 36%
- percentage of cells in prophase of DNA synthesis (G0/G1) (Ku-7-LG cells; 0.1 nM): 57%
- percentage of cells in DNA anaphase/mitosis (G2/M) (Ku-7-LG cells; 1 nM): 10%
- percentage of cells in DNA replication phase (S phase) (Ku-7-LG cells; 1 nM): 24%
- percentage of cells in prophase of DNA synthesis (G0/G1) (Ku-7-LG cells; 1 nM): 66%
- percentage of cells in DNA anaphase/mitosis (G2/M) (Ku-7-LG cells; 10 nM): 9%
- percentage of cells in DNA replication phase (S phase) (Ku-7-LG cells; 10 nM): 12%
- percentage of cells in prophase of DNA synthesis (G0/G1) (Ku-7-LG cells; 10 nM): 79%
- percentage of cells in DNA anaphase/mitosis (G2/M) (Ku-7-LG cells; 50 nM): 8%
- percentage of cells in DNA replication phase (S phase) (Ku-7-LG cells; 50 nM): 16%
- percentage of cells in prophase of DNA synthesis (G0/G1) (Ku-7-LG cells; 50 nM): 76%

Substance: Rag1-40-1: saRNA duplex: sense mCmCAACUCAUUCUCCAAGmUmC (SEQ ID NO 5); antisense fUAfCfUfUGGAGAAfUGAGfUfUGGfCA (SEQ ID NO 6) (sense CCAACUCAUUCUCCAAGUC; antisense UACUUGGAGAAUGAGUUGGCA; 2'-OMe and 2'-F modifications; modified_base (1)..(19) (1,2,18,19)=2′-O-methyl(2′-OMe); modified_base (1)..(20) (1,3,4,5,12,16,17,20)=2′-fluoro)
- off-target effect compared to unmodified Rag1-40, in words [3]: completely inhibited
- degradation of duplex at 96 hours (RNase A): little or no signs of degradation

Substance: Rag1-40-14: saRNA duplex: sense fCfCAACUCAUUCUCCAAGfUfC (SEQ ID NO 14); antisense fU*A*fCfUfUGGAGAAfUGAGfUfUGG*fC*A (SEQ ID NO 11) (sense CCAACUCAUUCUCCAAGUC; antisense UACUUGGAGAAUGAGUUGGCA; 2'-F modifications, phosphorothioates; modified_base (1)..(19) (1,2,18,19)=2′-fluoro; modified_base (1)..(21) (1,2,3,19,20,21)=phosphorothioate (PS) backbone modification; modified_base (1)..(20) (1,3,4,5,12,16,17,20)=2′-fluoro)
- off-target effect compared to unmodified Rag1-40, in words [3]: mitigated or similar off-target effects
- degradation of duplex at 96 hours (RNase A): little or no signs of degradation

Substance: Rag1-40-19: saRNA duplex: sense mCmCAACUCAUUCUCCAAG*U*C (SEQ ID NO 15); antisense fUmAfCfUfUmGmGmAmGmAmAfUmGmAmGfUfUmGmGfCmA (SEQ ID NO 8) (sense mCmCrArArCrUrCrArUrUrCrUrCrCrArArG*rU*rC)
- off-target effect compared to unmodified Rag1-40, in words [3]: mitigated or similar off-target effects
- degradation of duplex at 96 hours (RNase A): little or no signs of degradation
